Entries after “also recorded” stand apart in the source; their conditions may differ.

Series [1] has as its system MCF-7 cells. The series can be described thus: Soft agar assay for colony formation (anchorage-independent growth). In kind it is cell-based. To be noted: for visible colony formation in soft agar: MCF-7 cells, 10 μM, treated 40 h, colonies after 21 days. The protocol:
Soft Agar Assay for Colony Formation:
After cells were treated with various conditions, they were seeded in six-well plates. The plates were first covered with phenol red-free MEM containing 0.6% agar and 10% FBS. The middle layer contained cells (5×10^3) in phenol red-free MEM with 0.35% agar and 10% FBS. The top layer, consisting of the medium, was added to prevent drying of the agar in the plates. The plates were incubated for 21 days, after which the plates were stained in 0.5 ml of 0.005% crystal violet for 1 h and the cultures were inspected and photographed. The colony efficiency (CE) was determined by a count of the number of colonies greater than […] in diameter, which was calculated as the average of colonies counted at 50× magnification in five individual fields manually (Liu S, et al. Oncogene, 23:1256-62, 2004).
The long-term effects of statins and the inhibitors on the proliferation and survival of MCF-7 cells were determined using clonogenic assays (Ramanathan B, et al. Cancer Res, 65:8455-60, 2005). The extent of malignancy of cells corresponds to the attainment of anchorage-independent growth (Liu S, et al. Oncogene, 23:1256-62, 2004). MCF-7 cells were treated with simvastatin or fluvastatin in the presence or absence of either 1400 W or mevalonate or sepiapterin. In separate experiments, cells were treated with either GGTI-298 or FTI-277. At the end of the treatments, approximately 5×10^3 cells were seeded onto a soft agar to determine their clonogenic efficiency after 21 days. […] In the presence of either 1400 W or mevalonate, the colony formation was restored in statin-treated cells (FIG. 6B).

The subject of series [2] is MCF-7 breast cancer cells. Nature of the series: MTT reduction cytotoxicity assay in MCF-7 cells. To be noted: 48 h; for MCF-7 cell death (MTT assay) by isoprenylation inhibitors: 10-20 μM. The protocol: MTT Reduction Cytotoxicity Assay:
MTT is taken up by cells and is reduced to a colored formazon product that can be detected by spectrophotometry (max=562 nm). Reduction of MTT is dependent upon the mitochondrial respiratory function, and thus measures the relative number of viable cells in the culture. After the treatment was completed, MCF-7 cells were washed twice with DPBS and taken in a ml of MEM without FBS and incubated with 5 mg/ml MTT solution for 1 h at 37° C. Medium was removed and cells were solubilized in DMSO. The absorption was measured at 562 nm with reference at 630 nm.
We assessed the effectiveness of simvastatin and fluvastatin to induce cytotoxicity in MCF-7 cells. MCF-7 breast cancer cells were treated with fluvastatin or simvastatin at different concentrations (0.5-20 μM) for 24-48 h. The changes in the number of viable cells were determined using the MTT assay that monitors the intracellular conversion of MTT to formazon spectrophotometrically max=562 nm).

Series [3] relates to iNOS in MCF-7 cells. Nature of the series: iNOS mRNA (RT-PCR) and protein (Western) levels. The format is cell-based. The conditions noted are these: MCF-7 cells, 10-20 μM, 40 h, Western analysis. As for the experimental part: After treatment with statins, cells were washed with ice-cold DPBS and resuspended in 150 μl of radioimmune precipitation assay buffer (20 mM Tris-HCl, pH 7.4, 2.5 mM EDTA, 1% Triton X-100, 1% sodium deoxycholate, 1% SDS, 100 mM NaCl, 100 mM sodium fluoride) containing 1 mM sodium vanadate, 10 μg/ml aprotinin, 10 μg/ml leupeptin, and 10 μg/ml pepstatin inhibitors. Cells were homogenized by passing the suspension through a 25-gauge needle (20 strokes). The lysate was centrifuged at 750×g for 10 min at 4° C. to pellet out the nuclei. The remaining supernatant was centrifuged for 30 min at 12,000×g. Protein was determined using the Lowry method and 50 μg of the lysate was used for the Western blot analysis. Proteins were resolved using the SDS-polyacrylamide gels and blotted onto nitrocellulose membranes. Membranes were washed with TBS (140 mM NaCl, 50 mM Tris-HCl, pH 7.2) containing 0.1% Tween 20 (TBST) and 5% skim milk to block the non-specific protein binding. Membranes were incubated with 1 μg/ml rabbit anti-iNOS polyclonal antibody (Abeam, Cambridge, Mass.), mouse anti-cyclin D1 antibody, mouse anti-cyclin E antibody (BD Biosciences, San Jose, Calif.) or rabbit anti-p27 antibody (Chemicon International, Temecula, Calif.) in TBST for overnight at 4° C., washed 5 times with TBST, and then incubated with goat anti-rabbit or rabbit anti-mouse IgG-horseradish peroxidase-conjugated secondary antibody (1:5,000) for 1.5 h at room temperature. The band was detected using the ECL method (Amersham Biosciences).
Following the treatments, medium was aspirated and 1 ml of TRIzol reagent (Invitrogen) was added and total RNA was extracted using the manufacturer's protocol. Five μg of RNA was used for the first strand cDNA synthesis using a first strand cDNA synthesis kit (Amersham Biosciences). […]

In series [4] the test system is MCF-7 cells. Nature of the series: 3H-thymidine uptake (DNA synthesis / cell proliferation). The format is cell-based. To be noted: 10-20 μM. As for the experimental part: Thymidine Uptake Studies:
DNA synthesis was measured by monitoring the uptake of tritiated thymidine, [^3H]TdR (Perkin-Elmer, Boston, Mass.). Cells (5×10^5/ml) were cultured with different concentrations of simvastatin or fluvastatin (0-10 μM) in the presence or absence of mevalonate (20 μM), 1400 W, or sepiapterin. Cells were pulse-chased with [^3H]TdR [0.5 μCi (0.185 MBq)/well during the last 3 h of a 24 h culture, harvested onto glass filters with an automatic cell harvester (Cambridge Technology, Cambridge, Mass.), and counted using the LKB Betaplate scintillation counter (Wallac, Gaithersburg, Md.). All experiments were performed in triplicate and repeated three times.

For series [5], the system named is NO2-/NO3- levels in MCF-7 cells. Nature of the series: Nitrite and nitrate measurements by chemiluminescence (NO analyzer). The conditions noted are these: for effect on statin-induced NO / NO2-/NO3- levels: with simvastatin or fluvastatin (10 μM), 40 h, mevalonate 20 μM, 1400 W 10 μM, sepiapterin 50 μM, compared to statin alone. In kind it is cell-based. The protocol:
Briefly, following treatments, cells were washed three times with DPBS after aspirating the medium. To this, 1 ml of Hanks' balanced salt mixture containing 25 μM L-arginine was added and incubated for 30 min at 37° C. The medium was collected and centrifuged for 5 min at 5000 rpm, and 50 μl of the clear supernatant was used for nitrate and nitrite analysis. Each sample was analyzed in triplicate.

Series [6] concerns MCF-7 cells. The series can be described thus: Apoptosis by TUNEL assay. In kind it is cell-based. The conditions noted are these: with simvastatin or fluvastatin 5-10 μM, 48 h, 1400 W 10 μM, sepiapterin 50 μM, mevalonate 20 μM. From the text: Measurement of Apoptosis by TUNEL Assay:
The terminal deoxynucleotidyl transferase-mediated nick-end labeling (TUNEL) assay was used for microscopic detection of apoptosis (Kotamraju S, et al. J Biol Chem, 277:17179-87, 2002). This assay is based on labeling of 3′ free hydroxyl ends of the fragmented DNA with fluorescein-dUTP catalyzed by terminal deoxynucleotidyl transferase. Procedures were followed according to a commercially available kit (ApoAlert) from Clontech. […] The apoptotic cells were detected by fluorescence microscopy equipped with rhodamine and FITC filters. The quantification of apoptosis was performed using the Metamorph image analysis package.
Under these conditions, NO2^−/NO3^− levels were decreased (FIG. 4B). […] Further verification that iNOS is involved in […] NO was obtained from inhibition of geranylgeranylation and farnesylation. […] In contrast, FTI-277 (farnesylation inhibitor) and sepiapterin had no effect on NO2^−/NO3^− levels (FIG. 4C). […] In the TUNEL assay, cells were treated with simvastatin or fluvastatin (5-10 μM) for 48 h in the presence or absence of 1400 W (10 μM), sepiapterin (50 μM) or mevalonate (20 μM) and stained for TUNEL-positive cells as an index of DNA fragmentation monitored by fluorescence microscopy (original magnification, ×100). Photographs were taken for the overlaid images of propidium iodide-and FITC-stained cells (TUNEL-positive cells). Yellow and red denote apoptotic and nonapoptotic cells, respectively. We observed that the TUNEL positive staining was enhanced in statin-treated MCF-7 cells. […] Pretreatment with 1400 W or mevalonate caused a decrease in the TUNEL positive cells.

Series [7] deals with MCF-7 cells. The series can be described thus: Cell cycle analysis by flow cytometry. In kind it is cell-based. The conditions noted are these: 1400 W 10 μM, mevalonate 20 μM. The protocol: For DNA content analysis, harvested cells were centrifuged at 1,000×g for 5 min, fixed by the gradual addition of ice-cold 70% ethanol, and washed with PBS. Cells were then treated with RNase (10 μg/mL) for 30 min at 37° C., washed once with PBS, and resuspended and stained in 1 mL of 69 μmol/L propidium iodide in 38 mmol/L sodium citrate for 30 min at room temperature. The cell cycle phase distribution was determined by analytic DNA flow cytometry as described in (Vindelov L, et al. Methods Cell Biol, 33:127-37, 1990). The percentage of cells in each phase of the cell cycle was analyzed using a Modfit software (Verity Software House, Topsham, Me.).
As NO has previously been reported to exert tumor cell cycle alterations (Pervin S, et al. Natl Acad Sci USA 98:3583-3588, 2001), we investigated the cytostatic effect of statins in MCF-7 cells. MCF-7 cells were treated with simvastatin and fluvastatin for […] in the presence and absence of 1400 W (10 μM) and mevalonate (20 μM). Cell cycle progression was examined using FACScan flow cytometry analysis. […] As cell cycle progression from […] involves activations of the cell regulatory proteins, cyclins D and E, we investigated the effects of statins and iNOS inhibitor on the cell cycle proteins. […]
(Flow cytometry measures light scatter and fluorescence of single cells or particles in a stream.)

Series [8] has as its system cyclin D1, cyclin E and p27 in MCF-7 cells. The series can be described thus: Cell cycle protein levels by Western analysis (cyclin D1, cyclin E, p27). In kind it is cell-based. To be noted: 1400 W 10 μM or mevalonate 20 μM. As for the experimental part:
A (Table): The cell cycle distribution of MCF-7 cells treated with either simvastatin or fluvastatin (5-10 μM) for 40 h in the presence or 1400 W (10 μM) or mevalonate (20 μM). The cell sorting was performed by flow cytometry as described in “Materials and Methods.” B: Cells were treated with simvastatin or fluvastatin (10 μM) in the presence or absence of 1400 W (10 μM) or mevalonate (20 μM) for 40 h and cyclins D1 and E protein levels were measured by the Western analysis using the corresponding polyclonal or monoclonal antibodies. Data are representative of three separate experiments.
After treatment with statins, cells were washed with ice-cold DPBS and resuspended in 150 μl of radioimmune precipitation assay buffer (20 mM Tris-HCl, pH 7.4, 2.5 mM EDTA, 1% Triton X-100, 1% sodium deoxycholate, 1% SDS, 100 mM NaCl, 100 mM sodium fluoride) containing 1 mM sodium vanadate, 10 μg/ml aprotinin, 10 μg/ml leupeptin, and 10 μg/ml pepstatin inhibitors. Cells were homogenized by passing the suspension through a 25-gauge needle (20 strokes). The lysate was centrifuged at 750×g for 10 min at 4° C. to pellet out the nuclei. The remaining supernatant was centrifuged for 30 min at 12,000×g. Protein was determined using the Lowry method and 50 μg of the lysate was used for the Western blot analysis. […] The band was detected using the ECL method (Amersham Biosciences).

Regarding `COC(=O)[C@H](CCSC)NC(=O)c1ccc(NC[C@@H](N)CS)cc1-c1ccccc1` [FTI-277, methyl {N-[2-phenyl-4-N[2(R)-amino-3-mecaptopropylamino]benzoyl]}-methionate], the “visible colony formation in soft agar” value in series [1] was “not”. Further, the “MCF-7 cell death (MTT assay) by isoprenylation inhibitors” value in series [2] is listed as “not”. The “iNOS protein levels by isoprenylation inhibitors” value in series [3] is listed as “not”. Moreover, the “loss of MCF-7 cell proliferation (3H-thymidine uptake) by isoprenylation inhibitors” value in series [4] is on record as “not”.
As for `C[C@H](O)C(=O)C1=Nc2c(nc(N)[nH]c2=O)NC1` [sepiapterin], in series [1] (lower concentration of simvastatin or fluvastatin (5 μM), sepiapterin 50 μM), the “colony growth, sepiapterin supplementation with simvastatin or fluvastatin” value is on record as “completely inhibited”. Further, in series [5] (MCF-7 cells), the “NO2-/NO3- levels, sepiapterin with FTI-277” value is reported as “no effect” and the “NO2-/NO3- levels, sepiapterin with GGTI-298 compared to GGTI-298 alone” value was “significantly increased”. The “NO2-/NO3- levels, sepiapterin alone” value in series [5] (in the absence of statin) is on record as “did not increase”. In series [5], the “effect on statin-induced NO / NO2-/NO3- levels” value is “significantly increased”. Moreover, the “effect on statin-induced TUNEL-positive cells (proapoptotic effect)” value (“effect … (proapoptotic effect)” for short) in series [6] is “exacerbated”. The “effect … (proapoptotic effect)” value in series [6] (listed as Sepiapterin) is listed as “further augmented”.
Regarding `CC(C)=CCC/C(C)=C/CC/C(C)=C/CC/C=C(\C)CC/C=C(\C)CCC=C(C)C` [squalene], in series [2] (pretreatment before simvastatin or fluvastatin (10 μM), mevalonate 20 μM, 1400 W 10 μM), the “effect on statin-induced MCF-7 cell cytotoxicity (MTT assay)” value is on record as “did not prevent”.
On to `COC(=O)[C@H](CC(C)C)NC(=O)c1ccc(NC[C@@H](N)CS)cc1-c1cccc2ccccc12` [GGTI-298, N-4-[2(R)-amino-3-mercaptopropyl]amino-2-naphthylbenzoyl-(L)-leucine methyl ester], for which the “visible colony formation in soft agar” value in series [1] was “drastically lowered”. In addition, the “MCF-7 cell death (MTT assay) by isoprenylation inhibitors” value in series [2] is recorded as “induced MCF-7 cell death”. For the same molecule, the “iNOS protein levels by isoprenylation inhibitors” value in series [3] is recorded as “dose-dependently induced”. Besides, the “loss of MCF-7 cell proliferation (3H-thymidine uptake) by isoprenylation inhibitors” value in series [4] was “loss of cell proliferation”.
For `CC(=N)NCc1cccc(CN)c1` [1400 W, N-(3-aminomethyl)benzylacetamidine], the “colony formation in statin-treated cells in the presence of modulator” value in series [1] (1400 W 10 μM or mevalonate 20 μM with statin 10 μM) is on record as “restored”. In series [7], the “effect on statin-induced cell cycle alterations” value is “partially reversed”. Further, the “effect on statin-induced NO / NO2-/NO3- levels” value in series [5] is given as “inhibited; also recorded: decreased”. Moreover, the “effect on statin-induced decrease of cyclin D1 and cyclin E” value in series [8] is recorded as “restored in part”. In addition, the “effect … (proapoptotic effect)” value in series [6] is “decrease”.
For N-nitroso-fluvastatin [NO-fluvastatin], in series [2] (0-1 μM), the “potency in causing MCF-7 cell death compared to fluvastatin alone (MTT assay)” value was “more potent”.

Values taken from US20070219208A1, “Methods for Treating Cancer” (priority 2006, published 2007).
